For data set [1] the following is noted: 101.33 kPa, Liquid; for viscosity: Capillary tube (Ostwald / Ubbelohde) method; for mass density: Pycnometric method.
Data set [2] is described as follows: xn = mol fraction of the nth substance listed. The conditions noted are these: 101 kPa, Liquid, x1 = 1; for viscosity: Capillary tube (Ostwald / Ubbelohde) method; for mass density: Pycnometric method.

For three compounds, viscosity and mass density results are on record in the NIST ThermoML archive (doi:10.1021/je3009073).

Numbers after ± are expanded uncertainties.

One may read the viscosity as the resistance of a fluid to flow. Broadly, the mass density is the mass of a sample divided by its volume. Regarding `NCCO` [2-aminoethan-1-ol], the viscosity is 14.55 ± 0.61 mPa·s in data set [1] (303.15 K); 11.86 ± 0.5 mPa·s in data set [1] (308.15 K); 9.65 ± 0.41 mPa·s in data set [1] (313.15 K); 7.91 ± 0.33 mPa·s in data set [1] (318.15 K); 6.72 ± 0.28 mPa·s in data set [1] (323.15 K); 5.74 ± 0.24 mPa·s in data set [1] (328.15 K). For the same compound, the mass density in data set [1] (303.15 K) was 1007.9 ± 2 kg/m3; in data set [1] (308.15 K), 1004.2 ± 2 kg/m3; in data set [1] (313.15 K), 1000.5 ± 2.1 kg/m3; in data set [1] (318.15 K), 996.2 ± 2.1 kg/m3; in data set [1] (323.15 K), 992.7 ± 2.1 kg/m3; in data set [1] (328.15 K), 988.7 ± 2.1 kg/m3.
`O` [water] + CC(O)C(=O)[O-].[NH3+]CCO: the viscosity in data set [2] (303.15 K) was 0.8 ± 0.03 mPa·s; in data set [2] (308.15 K), 0.72 ± 0.03 mPa·s; in data set [2] (313.15 K), 0.65 ± 0.03 mPa·s; in data set [2] (318.15 K), 0.6 ± 0.02 mPa·s; in data set [2] (323.15 K), 0.55 ± 0.02 mPa·s; in data set [2] (328.15 K) it was 0.5 ± 0.02 mPa·s. For the same compound, the values for the mass density in data set [2] (323.15 K) and in data set [2] (328.15 K) were 988 ± 2 kg/m3 and 985.7 ± 2 kg/m3, respectively.
For `O` [water] + CC(O)C(=O)[O-].CN(C)C(N)=[N+](C)C, the viscosity in data set [2] (303.15 K) turned out to be 0.8 ± 0.03 mPa·s; in data set [2] (308.15 K) it was 0.72 ± 0.03 mPa·s; in data set [2] (313.15 K) it was 0.65 ± 0.03 mPa·s; in data set [2] (318.15 K), 0.6 ± 0.1 mPa·s; in data set [2] (323.15 K) it was 0.55 ± 0.02 mPa·s; in data set [2] (328.15 K), 0.5 ± 0.02 mPa·s. The mass density was 988 ± 2 kg/m3 in data set [2] (323.15 K) and 985.7 ± 2 kg/m3 in data set [2] (328.15 K).
